In patent US7880007B2, “Bicyclic substituted phenyl piperidine modulators of muscarinic receptors” (Vertex Pharmaceuticals Incorporated, priority 2004, dated 2011):

Legend:
Assay type in all cases: cell-based
M3 muscarinic receptor = target: T1, M3 muscarinic receptor (Homo sapiens, UniProt P20309); experiment: Functional mobilization of intracellular calcium (FLIPR), M3-CHO cells; conditions: for M3 Activity: M3-CHO cells, calcium mobilization (FLIPR)
T1 construct: expressed in transfected cells; host or cells: CHO (M3-CHO)
In short: (§1)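 CHO cells expressing human M1–M4 receptors loaded with Fluo-3 AM or Calcium 3 dye (1 mM probenecid, pH 7.4); 0.5% DMSO final. Agonist mode: compound added directly; antagonist mode: 15 min pre-incubation or co-application, then carbachol at EC80. Fluorescence read 60 s on FLIPR; efficacy relative to carbachol maximum.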

M2 muscarinic receptor = target: T2, M2 muscarinic receptor (Homo sapiens, UniProt P08172); experiment: Functional mobilization of intracellular calcium (FLIPR), M2-CHO cells; conditions: for M2 Activity: M2-CHO cells, calcium mobilization (FLIPR)
T2 construct: expressed in transfected cells; host or cells: CHO (M2-CHO)
T2 sequence (P08172 1-466): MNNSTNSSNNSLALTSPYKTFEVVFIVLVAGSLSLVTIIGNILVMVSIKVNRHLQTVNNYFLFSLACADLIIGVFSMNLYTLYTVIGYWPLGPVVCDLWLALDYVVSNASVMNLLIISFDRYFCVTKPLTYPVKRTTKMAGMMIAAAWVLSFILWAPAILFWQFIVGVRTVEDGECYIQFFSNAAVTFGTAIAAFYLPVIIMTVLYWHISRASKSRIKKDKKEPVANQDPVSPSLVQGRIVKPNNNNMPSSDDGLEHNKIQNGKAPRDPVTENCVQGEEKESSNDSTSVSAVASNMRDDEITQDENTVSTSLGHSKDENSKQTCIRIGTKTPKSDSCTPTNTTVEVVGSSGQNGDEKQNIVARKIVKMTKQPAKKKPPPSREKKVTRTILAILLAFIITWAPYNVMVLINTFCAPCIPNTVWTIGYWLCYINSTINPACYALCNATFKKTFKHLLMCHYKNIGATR
In short: as §1

M4 muscarinic receptor = target: T3, M4 muscarinic receptor (Homo sapiens, UniProt P08173); experiment: Functional mobilization of intracellular calcium (FLIPR), M4-CHO cells; conditions: for M4 Activity: M4-CHO cells, calcium mobilization (FLIPR)
T3 construct: expressed in transfected cells; host or cells: CHO (M4-CHO)
T3 sequence (P08173 1-479): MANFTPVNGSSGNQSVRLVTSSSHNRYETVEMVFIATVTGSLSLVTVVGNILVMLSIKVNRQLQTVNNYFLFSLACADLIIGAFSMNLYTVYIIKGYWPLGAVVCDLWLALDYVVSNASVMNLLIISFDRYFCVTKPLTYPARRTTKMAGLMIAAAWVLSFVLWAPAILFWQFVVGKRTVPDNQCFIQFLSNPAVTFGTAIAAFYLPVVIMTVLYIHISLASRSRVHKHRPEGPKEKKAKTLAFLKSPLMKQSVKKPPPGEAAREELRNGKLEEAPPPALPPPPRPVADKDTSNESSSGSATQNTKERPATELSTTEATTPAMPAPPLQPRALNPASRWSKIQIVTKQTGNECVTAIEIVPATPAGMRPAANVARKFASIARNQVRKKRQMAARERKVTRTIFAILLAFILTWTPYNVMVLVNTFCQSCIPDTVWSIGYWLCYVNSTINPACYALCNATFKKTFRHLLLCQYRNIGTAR
In short: as §1

M1 muscarinic receptor = target: T4, M1 muscarinic receptor (Homo sapiens, UniProt P11229); experiment: Functional mobilization of intracellular calcium (FLIPR), M1-CHO cells; conditions: for M1 Activity: M1-CHO cells, calcium mobilization (FLIPR)
T4 construct: expressed in transfected cells; host or cells: CHO (M1-CHO)
T4 sequence (P11229 1-460): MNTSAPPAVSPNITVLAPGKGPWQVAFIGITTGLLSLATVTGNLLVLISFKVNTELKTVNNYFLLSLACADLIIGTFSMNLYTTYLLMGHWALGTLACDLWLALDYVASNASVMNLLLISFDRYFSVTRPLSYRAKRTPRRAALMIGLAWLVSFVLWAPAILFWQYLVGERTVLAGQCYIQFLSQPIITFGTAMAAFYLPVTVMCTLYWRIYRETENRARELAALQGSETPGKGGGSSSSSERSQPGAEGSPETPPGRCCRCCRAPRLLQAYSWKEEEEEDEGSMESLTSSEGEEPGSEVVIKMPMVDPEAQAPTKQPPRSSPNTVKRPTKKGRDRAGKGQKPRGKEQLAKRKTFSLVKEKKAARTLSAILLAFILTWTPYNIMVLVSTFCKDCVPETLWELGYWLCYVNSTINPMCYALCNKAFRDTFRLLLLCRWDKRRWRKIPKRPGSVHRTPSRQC
In short: as §1

[1] = 100% efficacy = maximum response obtained with the Carbachol control

T1 sequence (P20309 whole entry): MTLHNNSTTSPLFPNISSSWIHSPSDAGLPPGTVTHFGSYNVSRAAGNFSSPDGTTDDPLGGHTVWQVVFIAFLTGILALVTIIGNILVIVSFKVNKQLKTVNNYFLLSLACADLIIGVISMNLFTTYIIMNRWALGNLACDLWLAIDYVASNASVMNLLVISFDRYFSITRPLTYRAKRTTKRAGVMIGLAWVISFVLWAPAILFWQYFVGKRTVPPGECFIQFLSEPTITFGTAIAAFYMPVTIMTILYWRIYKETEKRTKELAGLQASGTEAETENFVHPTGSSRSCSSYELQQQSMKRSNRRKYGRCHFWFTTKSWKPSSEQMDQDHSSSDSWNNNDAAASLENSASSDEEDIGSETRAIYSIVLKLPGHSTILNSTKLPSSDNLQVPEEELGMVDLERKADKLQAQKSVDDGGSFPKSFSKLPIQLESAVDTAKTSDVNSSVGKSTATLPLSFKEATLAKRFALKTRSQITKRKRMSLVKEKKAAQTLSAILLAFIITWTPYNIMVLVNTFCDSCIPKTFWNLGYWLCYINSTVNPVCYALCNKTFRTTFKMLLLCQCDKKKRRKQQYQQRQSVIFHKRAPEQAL

Row | SMILES | Emax (M3 muscarinic receptor; [1]) | Emax (M2 muscarinic receptor; [1]) | Emax (M4 muscarinic receptor; [1]) | Emax (M1 muscarinic receptor; [1]) | M3 Activity (M3 muscarinic receptor) | M2 Activity (M2 muscarinic receptor) | M4 Activity (M4 muscarinic receptor) | M1 Activity (M1 muscarinic receptor) | M3 Efficacy (M3 muscarinic receptor; [1]) | M2 Efficacy (M2 muscarinic receptor; [1]) | M4 Efficacy (M4 muscarinic receptor; [1]) | M1 Efficacy (M1 muscarinic receptor; [1])
1 | Cc1ccccc1C1CCN(CC2CC3C=CC2C3)CC1 (centres unmarked) [Compound 46] |  | 25 to 100% | 25 to 100% | 25 to 100% | + (activity was measured to be greater than 5.0 μM) | + (activity was measured to be greater than 5.0 μM) | +++ (activity was measured to be less than 1.0 μM) | ++ (activity was measured to be from 1.0 μM to 5.0 μM) |  |  |  | 
2 | COc1cc(F)c(F)c(C2CCN(C3CCOCC3)CC2)c1 [Compound 49] | < 25% | < 25% | 25 to 100% | 25 to 100% | + (activity was measured to be greater than 5.0 μM) | + (activity was measured to be greater than 5.0 μM) | +++ (activity was measured to be less than 1.0 μM) | + (activity was measured to be greater than 5.0 μM) |  |  |  | 
3 | COc1ccc(C)cc1C1CCN(C2C[C@H]3CC[C@H]2C3)CC1 (some centres unmarked) [Compound 51] | < 25% | 25 to 100% | 25 to 100% | 25 to 100% | + (activity was measured to be greater than 5.0 μM) | + (activity was measured to be greater than 5.0 μM) | +++ (activity was measured to be less than 1.0 μM) | ++ (activity was measured to be from 1.0 μM to 5.0 μM) |  |  |  | 
4 | COc1ccc(Cl)cc1C1CCN(C2CCC(=NOC3CCCCO3)CC2)CC1 (centres unmarked) [Compound 54] |  |  |  |  | + (activity was measured to be greater than 5.0 μM) | + (activity was measured to be greater than 5.0 μM) | +++ (activity was measured to be less than 1.0 μM) | ++ (activity was measured to be from 1.0 μM to 5.0 μM) | + (efficacy was calculated to be less than 25%) | + (efficacy was calculated to be less than 25%) | ++ (efficacy was calculated to be from 100% to 25%) | ++ (efficacy was calculated to be from 100% to 25%)
5 | COc1ccc(F)cc1C1(F)CCN(C2CCCCC2)CC1 [Compound 59] | < 25% | < 25% | 25 to 100% | 25 to 100% | + (activity was measured to be greater than 5.0 μM) | + (activity was measured to be greater than 5.0 μM) | ++ (activity was measured to be from 1.0 μM to 5.0 μM) | + (activity was measured to be greater than 5.0 μM) |  |  |  | 
6 | COc1ccc(F)cc1C1(O)CCN(C[C@@H]2C[C@H]3C=C[C@H]2C3)CC1 [Compound 60] | < 25% | < 25% | 25 to 100% | < 25% | + (activity was measured to be greater than 5.0 μM) | + (activity was measured to be greater than 5.0 μM) | ++ (activity was measured to be from 1.0 μM to 5.0 μM) | + (activity was measured to be greater than 5.0 μM) |  |  |  | 
7 | Cc1ccc(C)c(C2(O)CCN(CC3CC4C=CC3C4)CC2)c1 (centres unmarked) [Compound 62, 1-((bicyclo[2.2.1]hept-5-en-2-yl)methyl)-4-(2,5-dimethylphenyl)piperidin-4-ol] |  | < 25% | 25 to 100% | 25 to 100% | + (activity was measured to be greater than 5.0 μM) | + (activity was measured to be greater than 5.0 μM) | ++ (activity was measured to be from 1.0 μM to 5.0 μM) | ++ (activity was measured to be from 1.0 μM to 5.0 μM) |  |  |  | 

Second part, led by results:

Row | Emax (M3 muscarinic receptor; [1]) | Emax (M2 muscarinic receptor; [1]) | Emax (M4 muscarinic receptor; [1]) | Emax (M1 muscarinic receptor; [1]) | SMILES | M3 Activity (M3 muscarinic receptor) | M2 Activity (M2 muscarinic receptor) | M4 Activity (M4 muscarinic receptor) | M1 Activity (M1 muscarinic receptor) | M3 Efficacy (M3 muscarinic receptor; [1]) | M2 Efficacy (M2 muscarinic receptor; [1]) | M4 Efficacy (M4 muscarinic receptor; [1]) | M1 Efficacy (M1 muscarinic receptor; [1])
8 | < 25% | 25 to 100% | 25 to 100% | 25 to 100% | COc1ccc(Cl)cc1C1(F)CCN(C[C@@H]2C[C@H]3C=C[C@H]2C3)CC1 [Compound 44] | + (activity was measured to be greater than 5.0 μM) | + (activity was measured to be greater than 5.0 μM) | ++ (activity was measured to be from 1.0 μM to 5.0 μM) | + (activity was measured to be greater than 5.0 μM) |  |  |  | 
9 | < 25% | < 25% | 25 to 100% | < 25% | Cc1ccc(-c2ccccc2C2CCN([C@H]3C[C@H]4CC[C@H]3C4)CC2)cc1 [Compound 45] | + (activity was measured to be greater than 5.0 μM) | + (activity was measured to be greater than 5.0 μM) | + (activity was measured to be greater than 5.0 μM) | + (activity was measured to be greater than 5.0 μM) |  |  |  | 
10 | < 25% | < 25% | 25 to 100% | 25 to 100% | CCCOc1ccccc1C1CCN([C@H]2C[C@H]3CC[C@H]2C3)CC1 [Compound 47] | + (activity was measured to be greater than 5.0 μM) | + (activity was measured to be greater than 5.0 μM) | ++ (activity was measured to be from 1.0 μM to 5.0 μM) | + (activity was measured to be greater than 5.0 μM) |  |  |  | 
11 | < 25% | < 25% | 25 to 100% | 25 to 100% | COc1ccc(-c2ccc(F)cc2F)cc1C1CCN([C@H]2C[C@H]3CC[C@H]2C3)CC1 [Compound 48] | + (activity was measured to be greater than 5.0 μM) | + (activity was measured to be greater than 5.0 μM) | + (activity was measured to be greater than 5.0 μM) | + (activity was measured to be greater than 5.0 μM) |  |  |  | 
12 | < 25% | < 25% | 25 to 100% | 25 to 100% | COc1ccc(C(=O)c2ccccc2)cc1C1CCN([C@H]2C[C@H]3CC[C@H]2C3)CC1 [Compound 50] | + (activity was measured to be greater than 5.0 μM) | + (activity was measured to be greater than 5.0 μM) | ++ (activity was measured to be from 1.0 μM to 5.0 μM) | + (activity was measured to be greater than 5.0 μM) |  |  |  | 
13 | < 25% | < 25% | 25 to 100% | < 25% | COc1ccc(-c2ccc3c(c2)OCO3)cc1C1CCN(C2CCOCC2)CC1 [Compound 52] | + (activity was measured to be greater than 5.0 μM) | + (activity was measured to be greater than 5.0 μM) | + (activity was measured to be greater than 5.0 μM) | + (activity was measured to be greater than 5.0 μM) |  |  |  | 
14 | < 25% | 25 to 100% | 25 to 100% | 25 to 100% | COc1ccc(C(=O)COc2ccccc2C2CCN([C@H]3C[C@H]4CC[C@H]3C4)CC2)cc1 [Compound 57] | + (activity was measured to be greater than 5.0 μM) | ++ (activity was measured to be from 1.0 μM to 5.0 μM) | ++ (activity was measured to be from 1.0 μM to 5.0 μM) | ++ (activity was measured to be from 1.0 μM to 5.0 μM) |  |  |  | 
